The structures appear in SMILES notation. Active and inactive are the calls of the source.

The term IC50 denotes the midpoint of a concentration-inhibition curve.

Assay [1] relates to HEK293. The assay is described as follows: cells. To be noted: Homo sapiens. Format: functional, cell-based.
Assay [2] concerns HEK293. Put plainly: NOD1 signaling inhibitors, primary screen, cell-based, luminescence, uHTS (AID 1578). Format: functional. To be noted: Homo sapiens.
Assay [3] relates to HEK293. The assay is described as follows: cells. It is filed as functional, cell-based. The settings on record: Homo sapiens. This is another data set of the same source.
Assay [4] deals with HEK293. Put plainly: NOD2 signaling inhibitors in MDP-stimulated cells, cell-based, uHTS, luminescence (AID 2001). Format: functional. To be noted: Homo sapiens.
The target in another assay is T1, Coagulation factor XII (Homo sapiens, UniProt P00748).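 Further: activated factor XIIa alpha cleaving a fluorogenic AMC peptide substrate; inhibitor potency from loss of enzyme activity.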
T1 sequence (P00748 whole entry): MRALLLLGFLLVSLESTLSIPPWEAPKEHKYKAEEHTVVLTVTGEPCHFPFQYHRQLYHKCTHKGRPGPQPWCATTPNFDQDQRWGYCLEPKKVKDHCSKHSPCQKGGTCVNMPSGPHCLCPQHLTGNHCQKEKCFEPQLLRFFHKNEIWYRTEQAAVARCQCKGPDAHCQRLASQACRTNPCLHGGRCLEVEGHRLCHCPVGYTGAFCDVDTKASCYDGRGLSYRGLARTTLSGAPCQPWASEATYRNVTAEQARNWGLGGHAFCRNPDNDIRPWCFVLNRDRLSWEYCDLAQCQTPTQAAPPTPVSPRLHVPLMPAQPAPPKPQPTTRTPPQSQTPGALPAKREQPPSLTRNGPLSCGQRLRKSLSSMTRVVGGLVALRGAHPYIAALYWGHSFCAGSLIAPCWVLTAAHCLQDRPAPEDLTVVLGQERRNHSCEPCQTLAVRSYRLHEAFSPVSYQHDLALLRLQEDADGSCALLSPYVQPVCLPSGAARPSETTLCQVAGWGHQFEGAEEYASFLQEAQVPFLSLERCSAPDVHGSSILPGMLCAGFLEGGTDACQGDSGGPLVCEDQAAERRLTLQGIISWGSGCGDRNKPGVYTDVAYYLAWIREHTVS
It is filed as functional.

Another assay addresses T2, Protein skinhead-1 (Caenorhabditis elegans, UniProt P34707).
T2 sequence (P34707 whole entry): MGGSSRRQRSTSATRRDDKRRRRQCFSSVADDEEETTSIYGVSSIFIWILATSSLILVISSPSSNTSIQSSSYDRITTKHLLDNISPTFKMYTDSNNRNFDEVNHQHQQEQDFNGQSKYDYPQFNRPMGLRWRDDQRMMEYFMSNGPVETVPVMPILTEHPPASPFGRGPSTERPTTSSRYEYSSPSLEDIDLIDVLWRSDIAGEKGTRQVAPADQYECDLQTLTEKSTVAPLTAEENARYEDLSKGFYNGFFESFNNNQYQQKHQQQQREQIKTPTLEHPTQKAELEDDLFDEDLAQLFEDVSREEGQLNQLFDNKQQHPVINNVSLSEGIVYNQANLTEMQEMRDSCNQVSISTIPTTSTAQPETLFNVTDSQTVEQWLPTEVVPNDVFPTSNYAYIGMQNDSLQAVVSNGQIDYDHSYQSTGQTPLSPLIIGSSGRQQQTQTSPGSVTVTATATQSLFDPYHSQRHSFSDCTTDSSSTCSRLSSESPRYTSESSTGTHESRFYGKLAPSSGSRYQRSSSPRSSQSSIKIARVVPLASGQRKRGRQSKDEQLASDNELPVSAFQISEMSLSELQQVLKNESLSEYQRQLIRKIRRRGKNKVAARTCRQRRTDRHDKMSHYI
Format: functional.

Another assay relates to Streptococcus. Put plainly: Group A Streptococcus viability loss, dose response, counter-screen for streptokinase expression inhibitor project, luminescence, BacTiterGlo (AID 1915).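 Further: potency for reduction of bacterial viability or growth.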 Format: functional, organism-based.
Assay [5] has as its system Streptococcus sp. 'group A'. Put plainly: growth inhibition of control SK(-) GAS strain, dose response, counter-screen for streptokinase expression inhibitor project, luminescence, kanamycin, BacTiterGlo, confirmation (AID 1900). Format: functional, organism-based. Background: Counterscreens check selectivity or assay interference.
Assay [6] deals with T3, Short transient receptor potential channel 4 (Mus musculus, UniProt Q9QUQ5).
T3 sequence (Q9QUQ5 whole entry): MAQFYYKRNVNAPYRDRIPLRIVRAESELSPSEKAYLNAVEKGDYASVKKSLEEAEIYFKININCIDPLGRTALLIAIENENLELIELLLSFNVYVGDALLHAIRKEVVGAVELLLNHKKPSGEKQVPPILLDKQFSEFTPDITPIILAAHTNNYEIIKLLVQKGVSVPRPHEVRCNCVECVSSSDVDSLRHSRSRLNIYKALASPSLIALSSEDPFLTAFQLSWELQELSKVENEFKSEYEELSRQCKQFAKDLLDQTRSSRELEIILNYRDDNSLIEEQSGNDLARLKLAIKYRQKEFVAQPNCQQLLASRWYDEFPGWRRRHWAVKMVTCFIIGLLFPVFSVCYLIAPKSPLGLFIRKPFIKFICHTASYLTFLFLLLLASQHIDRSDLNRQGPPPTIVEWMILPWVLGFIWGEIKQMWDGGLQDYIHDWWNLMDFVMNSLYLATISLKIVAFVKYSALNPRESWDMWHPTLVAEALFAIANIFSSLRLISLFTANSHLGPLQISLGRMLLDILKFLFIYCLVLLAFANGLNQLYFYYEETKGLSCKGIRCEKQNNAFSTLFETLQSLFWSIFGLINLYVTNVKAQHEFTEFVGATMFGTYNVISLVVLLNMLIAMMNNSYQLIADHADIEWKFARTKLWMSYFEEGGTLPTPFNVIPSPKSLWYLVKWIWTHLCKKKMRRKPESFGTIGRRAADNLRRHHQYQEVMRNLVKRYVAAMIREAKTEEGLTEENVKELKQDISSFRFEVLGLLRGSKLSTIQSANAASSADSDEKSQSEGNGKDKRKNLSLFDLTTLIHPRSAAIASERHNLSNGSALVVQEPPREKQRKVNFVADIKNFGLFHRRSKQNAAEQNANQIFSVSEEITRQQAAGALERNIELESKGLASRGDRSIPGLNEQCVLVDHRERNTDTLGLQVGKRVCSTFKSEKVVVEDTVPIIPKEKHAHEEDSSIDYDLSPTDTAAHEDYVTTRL
The assay is described as follows: mouse TRPC4 channel activators, dose response, cell-based, HEK293 TRPC4/mu-opioid, Fluo-4 calcium (AID 434937). It is filed as functional.

Another assay concerns the target T4, Streptokinase A (Streptococcus pyogenes serotype M1, UniProt P10520).
T4 sequence (P10520 whole entry): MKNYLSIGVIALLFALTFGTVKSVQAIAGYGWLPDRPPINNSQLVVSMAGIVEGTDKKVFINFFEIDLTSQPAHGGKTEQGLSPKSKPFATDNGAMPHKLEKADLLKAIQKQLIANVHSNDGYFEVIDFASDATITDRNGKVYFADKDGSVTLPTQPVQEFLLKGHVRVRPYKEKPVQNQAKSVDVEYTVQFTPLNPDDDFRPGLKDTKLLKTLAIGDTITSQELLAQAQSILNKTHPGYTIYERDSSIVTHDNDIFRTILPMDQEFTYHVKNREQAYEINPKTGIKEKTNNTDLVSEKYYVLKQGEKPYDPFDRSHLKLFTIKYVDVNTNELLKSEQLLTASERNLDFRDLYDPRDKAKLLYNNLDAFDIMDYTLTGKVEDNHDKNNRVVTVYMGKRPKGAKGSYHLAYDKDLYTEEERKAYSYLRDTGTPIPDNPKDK
The assay is described as follows: S. pyogenes streptokinase expression inhibitors, potency, dose response, plasminogen activation absorbance, OD405 (AID 1914).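 Further: secreted streptokinase activity via plasminogen activation per viability signal from cell pellet.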 Format: functional, Streptococcus pyogenes M1 GAS.

The target of assay [7] is Luciferin 4-monooxygenase (Photinus pyralis, UniProt P08659). The assay is described as follows: firefly luciferase enzyme inhibitors, dose response, biochemical, luminescence (AID 1891).
Luciferin 4-monooxygenase, sequence (P08659 whole entry): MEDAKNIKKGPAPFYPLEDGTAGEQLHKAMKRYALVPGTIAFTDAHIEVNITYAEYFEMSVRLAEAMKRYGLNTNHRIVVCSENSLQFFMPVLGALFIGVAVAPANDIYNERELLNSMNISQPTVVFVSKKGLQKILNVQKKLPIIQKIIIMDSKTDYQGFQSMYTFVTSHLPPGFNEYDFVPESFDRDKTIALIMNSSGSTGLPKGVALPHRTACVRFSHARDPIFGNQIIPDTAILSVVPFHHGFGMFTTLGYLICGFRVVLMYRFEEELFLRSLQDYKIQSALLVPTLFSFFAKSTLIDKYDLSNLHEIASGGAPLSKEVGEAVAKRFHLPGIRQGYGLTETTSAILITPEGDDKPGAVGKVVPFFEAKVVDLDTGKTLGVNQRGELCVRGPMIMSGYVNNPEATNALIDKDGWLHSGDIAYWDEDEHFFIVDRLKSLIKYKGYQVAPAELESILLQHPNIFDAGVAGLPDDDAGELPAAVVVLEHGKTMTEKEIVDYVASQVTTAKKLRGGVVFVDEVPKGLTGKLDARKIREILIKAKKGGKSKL
Assay [8] in a line: Luminescence Cell-Based Dose Confirmation HTS to Identify Inhibitors of Platelet Dense Granule Release. [Related pubchem assays: 1663 (Primary HTS), 1678 (Summary of Project)]. It is filed as functional.
Assay [9] has as its target T5, Calpain-2 catalytic subunit (Sus scrofa, UniProt P43367).
T5 sequence (P43367 whole entry): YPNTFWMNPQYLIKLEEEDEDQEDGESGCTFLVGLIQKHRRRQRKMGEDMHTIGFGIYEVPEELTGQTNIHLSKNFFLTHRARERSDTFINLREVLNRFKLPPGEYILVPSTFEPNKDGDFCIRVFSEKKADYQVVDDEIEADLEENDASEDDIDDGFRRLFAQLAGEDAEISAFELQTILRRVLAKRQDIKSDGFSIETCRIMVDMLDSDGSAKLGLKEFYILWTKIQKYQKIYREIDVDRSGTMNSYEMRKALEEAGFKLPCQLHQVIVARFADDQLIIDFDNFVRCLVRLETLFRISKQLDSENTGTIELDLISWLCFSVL
The assay is described as follows: pig calpain II inhibitor potency, dose response, biochemical, fluorogenic peptide substrate (AID 1420). It is filed as functional.

Assay [10] addresses T6, Corticotropin-releasing factor receptor 2/Corticotropin-releasing factor-binding protein (Homo sapiens, UniProt P24387+Q13324).
T6 sequence (Q13324 whole entry): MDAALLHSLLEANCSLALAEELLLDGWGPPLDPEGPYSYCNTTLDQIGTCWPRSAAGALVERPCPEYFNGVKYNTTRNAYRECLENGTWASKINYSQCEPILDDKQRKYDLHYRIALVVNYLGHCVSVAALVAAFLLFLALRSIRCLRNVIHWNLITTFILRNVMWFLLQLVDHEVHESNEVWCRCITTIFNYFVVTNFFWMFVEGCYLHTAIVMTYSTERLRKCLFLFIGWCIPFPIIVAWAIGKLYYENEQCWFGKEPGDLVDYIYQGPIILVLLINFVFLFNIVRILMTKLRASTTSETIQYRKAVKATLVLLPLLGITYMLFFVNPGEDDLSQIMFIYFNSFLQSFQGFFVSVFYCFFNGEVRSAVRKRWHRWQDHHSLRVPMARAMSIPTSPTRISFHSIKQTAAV
T6 sequence (P24387 whole entry): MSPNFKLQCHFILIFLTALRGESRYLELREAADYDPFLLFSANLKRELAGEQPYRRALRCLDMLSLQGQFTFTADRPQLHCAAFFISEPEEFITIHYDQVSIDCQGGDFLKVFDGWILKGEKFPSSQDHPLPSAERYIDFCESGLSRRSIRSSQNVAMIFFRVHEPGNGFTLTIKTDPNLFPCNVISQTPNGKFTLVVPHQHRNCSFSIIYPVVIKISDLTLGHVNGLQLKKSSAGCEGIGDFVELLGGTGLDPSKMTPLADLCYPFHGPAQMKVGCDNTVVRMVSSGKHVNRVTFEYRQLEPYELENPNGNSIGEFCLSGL
The assay is described as follows: activators of CRF receptor 2 with binding protein – uHTS hits, confirmation (AID 602473). Format: functional. To be noted: read-out: EC50_Mean.

Take `CC(Sc1n[nH]c2c3ccccc3nc-2n1)C(=O)NC1CCCCC1` (stereo not given): the IC50 in the assay with HEK293 [1] was 11.1 µM (active); in the assay on HEK293 [3] it was > 20 µM (inactive); in the assay on HEK293 [4], 9.89 µM (active). For the same compound, in the assay with HEK293 [2], the EC50 was 4.88 µM (active).
Take `O=C(Oc1cncc(Cl)c1)c1ccco1`: the IC50 was 1.39 µM (active) on Coagulation factor XII and > 100 µM (inactive) on Protein skinhead-1.
As to `S=C(Nc1ccc(Oc2ccccc2)cc1)N1CCN(c2ccccn2)CC1`, the IC50 in the assay on HEK293 [1] was 5.27 µM (active); in the assay on HEK293 [3] it was > 20 µM (inactive); with HEK293 [4] it was 6.67 µM (active). Moreover, the EC50 with HEK293 [2] is 9.44 µM (active).
As for `CCOC(=O)C1=NN(C(=O)c2ccc(C)cc2)C(O)(c2ccc(Cl)cc2)C1` (stereo not given), the EC50 in the assay on Streptococcus is 8.19 µM (active); in [5] it was 2.15 µM (active); in [6], 9.44 µM (active); on Streptokinase A, > 150 µM (not active).
`CCN1CCN(c2c(S(=O)(=O)c3ccc(C)c(C)c3)cnc3ccc(F)cc23)CC1`: the EC50 in [6] is 0.944 µM (active).
In the case of `CN(C)C(CNC(=O)CCc1c[nH]c2ccccc12)c1ccccc1` (stereo not given), the EC50 in [6] is 0.0747 µM (active).
With `COCCCn1c(=O)/c(=C\c2ccccc2OC(C)C)s/c1=C(/C#N)C(=O)Nc1ccc(C(=O)O)cc1`, the EC50 in assay [7] is > 112 µM (not active); in assay [8], > 112 µM (not active); in the assay with Streptococcus, > 50 µM (not active); in assay [5], 1.44 µM (active); on Streptokinase A it was > 150 µM (not active). Besides, the IC50 at Coagulation factor XII was > 50 µM (inactive); in [9], 3.61 µM (not active).
With `Cc1ccc(O)c(C(=O)c2cc(C#N)c3nc4ccccc4n3c2)c1`, the results for the IC50 with HEK293 [1], with HEK293 [3] and in the assay on HEK293 [4] were 14.8 µM (active), > 20 µM (inactive) and 10.2 µM (inactive), respectively. Also, the EC50 was 3.28 µM (active) in the assay on HEK293 [2] and 17.5 µM (active) in assay [10].
Consider `CN(CCc1ccccn1)C(=S)Nc1cccc(S(=O)(=O)N(C)C)c1`, for which the EC50 in assay [6] is 5.31 µM (active).
With `CCCCC(c1nnnn1CC1CCCO1)N1CCN(c2nc3ccccc3s2)CC1` (stereo not given), in [6], the EC50 was 1.06 µM (active).

The record behind these values is ChEMBL document CHEMBL1201862, “PubChem BioAssay data set” (2004).
